Measured values taken from patent US9206130B2, “Quinoline derivatives as AXL kinase inhibitors” (Max-Planck-Gesellschaft zur Förderung der Wissenschaften …, priority 2008, dated 2015).
Structures can show the parent of a compound that is named as a salt.

Structure (SMILES)	melting point [°C]
COc1cc2nccc(Oc3ccc(NS(=O)(=O)c4ccccc4)c(F)c3)c2cc1OC	234 to 235
COc1cc2nccc(Oc3ccc(NS(=O)(=O)c4ccccc4C(F)(F)F)cc3OC)c2cc1OC	198 to 199
COc1cc2nccc(Oc3ccc(NS(=O)(=O)c4ccccc4C(F)(F)F)cc3C)c2cc1OC	209 to 211
COc1cc2nccc(Oc3ccc(NS(=O)(=O)c4cc(F)ccc4F)c(F)c3)c2cc1OC	232 to 234
COc1cc2nccc(Oc3ccc(NS(=O)(=O)c4c(Cl)cccc4Cl)c(F)c3)c2cc1OC	217 to 218
COc1cc2nccc(Oc3ccc(NS(=O)(=O)c4ccccc4C(F)(F)F)c(F)c3)c2cc1OC	237 to 239
COc1cc2nccc(Oc3ccc(NS(=O)(=O)c4ccccc4OC(F)(F)F)c(F)c3)c2cc1OC	204 to 206
COc1cc2nccc(Oc3ccc(NS(=O)(=O)c4cccc5cccnc45)c(F)c3)c2cc1OC [Example A8, Quinoline-8-sulfonic acid [4-(6,7-dimethoxy-quinolin-4-yloxy)-2-fluoro-phenyl]-amide]	255 to 257
COc1cc2nccc(Oc3ccc(NS(=O)(=O)c4cc(Br)cc(C(F)(F)F)c4)c(F)c3)c2cc1OC [Example A47, 3-Bromo-N-[4-(6,7-dimethoxy-quinolin-4-yloxy)-2-fluoro-phenyl]-5-trifluoromethyl-benzenesulfonamide]	214 to 216
COc1cc2nccc(Oc3ccc(NS(=O)(=O)c4ccc(OCc5c(C)noc5C)cc4)cc3)c2cc1OC [Example A87, N-[4-(6,7-Dimethoxy-quinolin-4-yloxy)-phenyl]-4-(3,5-dimethyl-isoxazol-4-ylmethoxy)-benzenesulfonamide]	188 to 190
COc1cc2nccc(Oc3ccc(NS(=O)(=O)c4cccc5ccccc45)cc3)c2cc1OC [Example A104, Naphthalene-1-sulfonic acid [4-(6,7-dimethoxy-quinolin-4-yloxy)-phenyl]-amide]	250 to 253
COc1cc2c(Oc3ccc(NS(=O)(=O)c4ccccc4C(F)(F)F)cc3F)ccnc2cc1OCCCN1CCCC(C)C1 (stereo not drawn) [Example D35, N-(3-Fluoro-4-{6-methoxy-7-[3-(3-methyl-piperidin-1-yl)-propoxy]-quinolin-4-yloxy}phenyl)-2-trifluoromethyl-benzenesulfonamide]	118 to 121
COc1cc2c(Oc3ccc(NS(=O)(=O)c4cc(F)ccc4F)cc3F)ccnc2cc1OCCCN1CCCC(C)C1 (stereo not drawn) [Example D36, 2,5-Difluoro-N-(3-fluoro-4-{6-methoxy-7-[3-(3-methyl-piperidin-1-yl)-propoxy]-quinolin-4-yloxy}-phenyl)-benzenesulfonamide]	103 to 107
COc1cc(S(=O)(=O)Nc2ccc(Oc3ccnc4cc(OCCCN5CCCC(C)C5)c(OC)cc34)c(F)c2)ccc1F (stereo not drawn) [Example D38, 4-Fluoro-N-(3-fluoro-4-{6-methoxy-7-[3-(3-methyl-piperidin-1-yl)-propoxy]-quinolin-4-yloxy}-phenyl)-3-methoxy-benzenesulfonamide]	98 to 101
COc1cc2c(Oc3ccc(NS(=O)(=O)c4ccccc4C(F)(F)F)cc3F)ccnc2cc1OCCCN1CCOCC1 [Example D39, N-{3-Fluoro-4-[6-methoxy-7-(3-morpholin-4-yl-propoxy)-quinolin-4-yloxy]-phenyl}-2-trifluoromethyl-benzenesulfonamide]	180 to 181
COc1cc2c(Oc3ccc(NS(=O)(=O)c4ccccc4OC(F)(F)F)cc3F)ccnc2cc1OCCCN1CCOCC1 [Example D40, N-{3-Fluoro-4-[6-methoxy-7-(3-morpholin-4-yl-propoxy)-quinolin-4-yloxy]-phenyl}-2-trifluoromethoxy-benzenesulfonamide]	183 to 184
COc1cc2c(Oc3ccc(NS(=O)(=O)c4cc(F)ccc4F)cc3F)ccnc2cc1OCCCN1CCOCC1 [Example D41, 2,5-Difluoro-N-{3-fluoro-4-[6-methoxy-7-(3-morpholin-4-yl-propoxy)-quinolin-4-yloxy]-phenyl}-benzenesulfonamide]	192 to 195
COc1cc2c(Oc3ccc(NS(=O)(=O)c4cccc(-c5ccccc5)c4)cc3F)ccnc2cc1OCCCN1CCOCC1 [Example D42, Biphenyl-3-sulfonic acid {3-fluoro-4-[6-methoxy-7-(3-morpholin-4-yl-propoxy)-quinolin-4-yloxy]-phenyl}-amide]	210 to 212
COc1cc2c(Oc3ccc(NS(=O)(=O)c4ccc(Cl)cc4F)cc3F)ccnc2cc1OCCCN1CCOCC1 [Example D43, 4-Chloro-2-fluoro-N-{3-fluoro-4-[6-methoxy-7-(3-morpholin-4-yl-propoxy)-quinolin-4-yloxy]-phenyl}-benzenesulfonamide]	200 to 203
COc1cc2c(Oc3ccc(NS(=O)(=O)c4c(Cl)cccc4Cl)cc3F)ccnc2cc1OCCCN1CCOCC1 [Example D47, 2,6-Dichloro-N-{3-fluoro-4-[6-methoxy-7-(3-morpholin-4-yl-propoxy)-quinolin-4-yloxy]-phenyl}-benzenesulfonamide]	194 to 196
COc1cc2c(Oc3ccc(NS(=O)(=O)c4cccc5ccccc45)cc3F)ccnc2cc1OCCCN1CCOCC1 [Example D48, Naphthalene-1-sulfonic acid {3-fluoro-4-[6-methoxy-7-(3-morpholin-4-yl-propoxy)-quinolin-4-yloxy]-phenyl}-amide]	108 to 111

Further lines, results first:

melting point [°C]	Structure (SMILES)
224 to 227	COc1cc2nccc(Oc3ccc(NS(=O)(=O)c4ccccc4C(F)(F)F)cc3)c2cc1OC
233 to 235	COc1cc2nccc(Oc3ccc(NS(=O)(=O)c4cccc(F)c4)c(F)c3)c2cc1OC
230 to 231	COc1cc2nccc(Oc3ccc(NS(=O)(=O)c4cccc(C(F)(F)F)c4)c(F)c3)c2cc1OC
212 to 214	COc1cc2nccc(Oc3ccc(NS(=O)(=O)c4ccc(F)cc4F)c(F)c3)c2cc1OC
228 to 230	COc1cc2nccc(Oc3ccc(NS(=O)(=O)c4cc(Cl)ccc4Cl)c(F)c3)c2cc1OC
218 to 220	COc1cc2nccc(Oc3ccc(NS(=O)(=O)c4ccccc4C)c(F)c3)c2cc1OC
80 to 83	COc1cc2nccc(Oc3ccc(NS(=O)(=O)c4ccccc4C(F)(F)F)cc3F)c2cc1OC
178 to 180	COc1cc2c(Oc3ccc(NS(=O)(=O)c4ccccc4C(F)(F)F)cc3F)ccnc2cc1OCCN1CCOCC1
169 to 173	COc1cc2c(Oc3ccc(NS(=O)(=O)c4cc(F)ccc4F)cc3F)ccnc2cc1OCCN1CCOCC1
223 to 225	COc1cc2c(Oc3ccc(NS(=O)(=O)c4cc(F)ccc4F)cc3F)ccnc2cc1OCCCN1CCC(C)CC1
197 to 199	COc1cc2c(Oc3ccc(NS(=O)(=O)c4ccccc4C(F)(F)F)cc3F)ccnc2cc1OCCCN (as salt: hydrochloride)
198 to 202	COc1cc2c(Oc3ccc(NS(=O)(=O)c4cccc(-c5ccccc5)c4)cc3F)ccnc2cc1OCCCN (as salt: hydrochloride) [Example D03, Biphenyl-3-sulfonic acid {4-[7-(3-amino-propoxy)-6-methoxy-quinolin-4-yloxy]-3-fluoro-phenyl}-amide hydrochloride]
95 to 97	COc1cc2c(Oc3ccc(NS(=O)(=O)c4ccccc4OC(F)(F)F)cc3F)ccnc2cc1OCCCN (as salt: hydrochloride) [Example D15, N-{4-[7-(3-Amino-propoxy)-6-methoxy-quinolin-4-yloxy]-3-fluoro-phenyl}-2-trifluoromethoxy-benzenesulfonamide hydrochloride]
221 to 223	COc1cc2nccc(Oc3ccc(NS(=O)(=O)c4cccc(OC(F)(F)F)c4)c(F)c3)c2cc1OC [Example A35, N-[4-(6,7-Dimethoxy-quinolin-4-yloxy)-2-fluoro-phenyl]-3-trifluoromethoxy-benzenesulfonamide]
225 to 227	COc1cc2nccc(Oc3ccc(NS(=O)(=O)c4ccc(Cl)c(Cl)c4)c(F)c3)c2cc1OC [Example A49, 3,4-Dichloro-N-[4-(6,7-dimethoxy-quinolin-4-yloxy)-2-fluoro-phenyl]-benzenesulfonamide]
255 to 259	COc1cc2nccc(Oc3ccc(NS(=O)(=O)c4cc(Cl)c(O)c(Cl)c4)c(C)c3)c2cc1OC [Example A105, 3,5-Dichloro-N-[4-(6,7-dimethoxy-quinolin-4-yloxy)-2-methyl-phenyl]-4-hydroxy-benzenesulfonamide]
163 to 165	COc1cc2nccc(Oc3ccc(NS(=O)(=O)c4ccc5c(c4)CC(=O)N5C)cc3F)c2cc1OC [Example A125, 1-Methyl-2-oxo-2,3-dihydro-1H-indole-5-sulfonic acid [4-(6,7-dimethoxy-quinolin-4-yloxy)-3-fluoro-phenyl]-amide]
190 to 192	COc1cc2c(Oc3ccc(NS(=O)(=O)c4cccc(-c5ccccc5)c4)cc3F)ccnc2cc1OCCCN1CCCC(C)C1 (stereo not drawn) [Example D37, Biphenyl-3-sulfonic acid (3-fluoro-4-{6-methoxy-7-[3-(3-methyl-piperidin-1-yl)-propoxy]-quinolin-4-yloxy}-phenyl)-amide]
90 to 93	COc1cc(S(=O)(=O)Nc2ccc(Oc3ccnc4cc(OCCCN5CCOCC5)c(OC)cc34)c(F)c2)ccc1F [Example D44, 4-Fluoro-N-{3-fluoro-4-[6-methoxy-7-(3-morpholin-4-yl-propoxy)-quinolin-4-yloxy]-phenyl}-3-methoxy-benzenesulfonamide]
179 to 181	COc1cc2c(Oc3ccc(NS(=O)(=O)c4ccccc4F)cc3F)ccnc2cc1OCCCN1CCOCC1 [Example D45, 2-Fluoro-N-{3-fluoro-4-[6-methoxy-7-(3-morpholin-4-yl-propoxy)-quinolin-4-yloxy]-phenyl}-benzenesulfonamide]
166 to 168	COc1cc2c(Oc3ccc(NS(=O)(=O)c4ccccc4[N+](=O)[O-])cc3F)ccnc2cc1OCCCN1CCOCC1 [Example D46, N-{3-Fluoro-4-[6-methoxy-7-(3-morpholin-4-yl-propoxy)-quinolin-4-yloxy]-phenyl}-2-nitro-benzenesulfonamide]
